Experimental data as given in US5164185A, “Pharmaceutical and cosmetic depigmentation compositions with a caffeic acid base” (priority 1989, dated 1992).

Legend:
melanin biosynthesis = experiment: depigmenting action (studies on substances used singly or in combination); conditions: in words
Source text: In these latter, at least one of the active ingredients may be liposomes.

[1] = tested on: fungus-derived tyrosinase; experiment: in vitro tyrosinase inhibition, dopachrome formation by visible spectrophotometry (475 nm); format: biochemical; conditions: in words
Source text: The efficacy of the various combination according to the invention have been studied in vitro by measuring out, using visible spectrophotometry (475 nm), the quantity of dopachrome formed during the chain of tyrosine-oxidation reactions. These oxidation reactions are catalyzed in vitro using fungus-derived tyrosinase in the presence of a co-substrate (for example, a small quantity of L-dopa) in order to trigger the hydroxylation reaction of L-tyrosine into L-dopa, this latter being then oxidized by catalysis into dopaquinone, then into dopachrome, an intermediate product formed before the non-enzymatic oxidation reactions leading to melanin formation.
Accordingly, the concentration of dopachrome formed over time is monitored in the presence of various inhibitors of tyrosinasic activity.
The concentrations of inhibitors are expressed as molar percents in relation to the concentration of tyrosine present in the reactive medium.
The inhibitory effect may be expressed, in relation to the control curve (absence of inhibitor) by lowering of the quantity of dopachrome formed and/or by a slowing of dopachrome-formation kinetics. […]

melanocytes = conditions: in words, prior art; cited from earlier work

SMILES	depigmenting action (melanin biosynthesis)	inhibition of tyrosinasic activity leading to limited formation of dopachrome [1]	irritation and cytotoxicity for melanocytes (melanocytes)
O=C(O)/C=C/c1ccc(O)c(O)c1 [caffeic acid]	especially interesting depigmenting action	inhibition of tyrosinasic activity	–
Oc1ccc(O)cc1 [hydroquinone]	–	–	especially irritating and cytotoxic for melanocytes
